The test system of experiment [1] is Hepatome AH 130. In words: Hepatome AH 130 tumour growth inhibition in rats. In kind it is in vivo, Sprague-Dawley rats. The conditions noted are these: one i.p. injection, result in words. The source says: (§1) LD50 is the dose that causes a 50 percent lethality of the animals, and ED50 is the dose that causes a 50 percent reduction of tumour size.
(§2) The experimental design and the interpretation of the results are in accordance with the standards set by the CCNSC (Cancer Chemotherpy Reports, January 1959 and December 1962).
(§3) Experimental animals: Sprague-Dawley rats.
Tumour implant: 5 × 10^6 tumour cells i.p.
(§4) Therapy: One injection i.p. on the day following implanta-
(§5) Termination: The animals are killed on the 8th day.
(§6) Evaluation: Weights of tumours of test animals are compared
(§7) with those of control animals.

In experiment [2] the test system is Ehrlich ascites tumour, ELD hyperdiploid. In words: Ehrlich ascites tumour, ELD hyperdiploid (46 chromosomes), growth inhibition in mice. In kind it is in vivo, SPF NMRI mice. The conditions noted are these: one i.p. injection, result in words.
From the text: as §2
Ehrlich ascites tumour, ELD hyperdiploid
Experimental animals: SPF NMRI mice.
Tumour implant: 2 × 10^6 tumour cells i.p.
as §4, §5
Evaluation: Weight of tumours of test animals compared with
those of control animals.

Experiment [3] deals with Walker carcinosarcoma 256. Description: Walker carcinosarcoma 256 tumour growth inhibition in rats. In kind it is in vivo, Sprague-Dawley rats. The conditions noted are these: daily p.o. for 5 days, result in words.
From the text: as §1, §2
Walker carcinosarcoma 256.
as §3
Tumour implant: Tumour pieces with 2-4 mm diameter, sub-
Therapy: Daily p.o. administration for 5 days starting on
the day following implantation.
Termination: The animals are killed on the 9th day.
as §6, §7

The results in this text go back to patent US4177269A, “Novel 17-esters of 17α-hydroxy gestogens, compositions containing such compounds, processes for their preparation and methods of treatment therewith” (Aktiebolaget Leo, priority 1976, dated 1979).

Take `CC(=O)[C@@]1(OC(=O)C(C)OC(=O)CCCCc2ccc(N(CCCl)CCCl)cc2)CC[C@H]2[C@@H]3C=C(Cl)C4=CC(=O)CC[C@]4(C)[C@H]3CC[C@@]21C` (stereo partly drawn) [3:8, 6-chloro-17α-/2-(5-(4-(N,N-bis(2-chloroethyl)amino)phenyl)pentanoyloxy)propanoyloxy/pregna-4,6-diene-3,20-dione]: the antitumour activity entry in experiment [1] and in experiment [2] was “exhibit antitumour activity” each time.
`CC(=O)[C@@]1(OC(=O)C(C)OC(=O)/C=C/c2ccccc2N(CCCl)CCCl)CC[C@H]2[C@@H]3C=C(C)C4=CC(=O)CC[C@]4(C)[C@H]3CC[C@@]21C` (stereo partly drawn) [3:9, 17α-/2-((2E)-3-(2-(N,N-bis(2-chloroethyl)amino)phenyl)propenoyloxy)propanoyloxy/-6-methylpregna-4,6-diene-3,20-dione]: the antitumour activity entry in experiment [1] and in experiment [2] was “exhibit antitumour activity” throughout.
Regarding `CC(=O)[C@@]1(OC(=O)CCCCOC(=O)C(N)Cc2ccc(N(CCCl)CCCl)cc2)CC[C@H]2[C@@H]3C[C@H](F)C4=CC(=O)CC[C@]4(C)[C@H]3CC[C@@]21C` (stereo partly drawn) [3:10, 17α-/5-(2-amino-3-(4-(N,N-bis(2-chloroethyl)amino)phenyl)propanoyloxy)pentanoyloxy/-6α-fluoropregn-4-ene-3,20-dione], in experiment [1], the antitumour activity result is “exhibit antitumour activity”.
For `CC(=O)[C@@]1(OC(=O)COC(=O)CCCc2ccc(N(CCCl)CCCl)cc2)CC[C@H]2[C@@H]3C=C(Cl)C4=CC(=O)[C@@H]5C[C@@H]5[C@]4(C)[C@H]3CC[C@@]21C` [3:11, 6-chloro-17α-[4-(4-(N,N-bis(2-chloroethyl)amino)phenyl)butanoyloxyacetoxy]-1α,2α-methylenepregna-4,6-diene-3,20-dione], the antitumour activity entry in experiment [3] and in experiment [2] was “exhibit antitumour activity” each time.
Turning to `CC(=O)[C@@]1(OC(=O)CCCOC(=O)[C@@H](N)Cc2ccc(N(CCCl)CCCl)cc2)CC[C@H]2[C@@H]3CCC4=CC(=O)CC[C@]4(C)[C@H]3CC[C@@]21C` [3:13, 17-[4-((2S)-2-amino-3-(4-(N,N-bis(2-chloroethyl)amino)phenyl)propanoyloxy)butanoyloxy]pregn-4-ene-3,20-dione], the antitumour activity entry in experiment [1] is listed as “exhibit antitumour activity”.
The same measure, in the same setting: in the case of `CC(=O)N[C@@H](Cc1ccc(N(CCCl)CCCl)cc1)C(=O)OCCCC(=O)O[C@]1(C(C)=O)CC[C@H]2[C@@H]3CCC4=CC(=O)CC[C@]4(C)[C@H]3CC[C@@]21C` [3:15, 17-[4-((2S)-2-acetamido-3-(4-(N,N-bis(2-chloroethyl)amino)phenyl)propanoyloxy)butanoyloxy]pregn-4-ene-3,20-dione] it was “exhibit antitumour activity”; in that of `CC(=O)[C@@]1(OC(=O)COC(=O)Cc2ccc(N(CCCl)CCCl)cc2)CC[C@H]2[C@@H]3C=C(C)C4=CC(=O)CC[C@]4(C)[C@H]3CC[C@@]21C` [3:17, 17α-[4-(N,N-bis(2-chloroethyl)amino)phenylacetoxyacetoxy]-6-methylpregna-4,6-diene-3,20-dione], “exhibit antitumour activity”.
Consider `CC(=O)[C@@]1(OC(=O)COC(=O)c2ccc(C)c(N(CCCl)CCCl)c2)CC[C@H]2[C@@H]3C=C(Cl)C4=CC(=O)CC[C@]4(C)[C@H]3CC[C@@]21C` [3:18, 6-chloro-17α-[3-(N,N-bis(2-chloroethyl)amino)-4-methylbenzoyloxyacetoxy]pregna-4,6-diene-3,20-dione], for which the antitumour activity entry in experiment [3] is listed as “exhibit antitumour activity”.
In the case of `CC(=O)[C@@]1(OC(=O)COC(=O)[C@@H](N)Cc2cccc(N(CCCl)CCCl)c2)CC[C@H]2[C@@H]3CCC4=CC(=O)CC[C@]4(C)[C@H]3CC[C@@]21C` [3:19, 17-[(2S)-2-amino-3-(3-(N,N-bis(2-chloroethyl)amino)phenyl)propanoyloxyacetoxy]pregn-4-ene-3,20-dione], the antitumour activity entry in experiment [1] was “exhibit antitumour activity”.
The same measure, in the same setting: in the case of `CC(=O)[C@@]1(OC(=O)COC(=O)[C@@H](N)Cc2ccccc2N(CCCl)CCCl)CC[C@H]2[C@@H]3CCC4=CC(=O)CC[C@]4(C)[C@H]3CC[C@@]21C` [3:20, 17-[(2S)-2-amino-3-(2-(N,N-bis(2-chloroethyl)amino)phenyl)propanoyloxyacetoxy]pregn-4-ene-3,20-dione] it was “exhibit antitumour activity”.
As to `CC(=O)[C@@]1(OC(=O)CCCOC(=O)CCCc2ccc(N(CCCl)CCCl)cc2)CC[C@H]2[C@@H]3C[C@H](C)C4=CC(=O)CC[C@]4(C)[C@H]3CC[C@@]21C` [3:21, 17α-[4-(4-(4-(N,N-bis(2-chloroethyl)amino)phenyl)butanoyloxy)butanoyloxy]-6α-methylpregn-4-ene-3,20-dione], the antitumour activity entry in experiment [3] is “exhibit antitumour activity”.
On to `CC(=O)[C@@]1(OC(=O)CCCOC(=O)c2ccc(C)c(N(CCCl)CCCl)c2)CC[C@H]2[C@@H]3C=C(C)C4=CC(=O)CC[C@]4(C)[C@H]3CC[C@@]21C` [3:23, 17α-[4-(3-(N,N-bis(2-chloroethyl)amino)-4-methylbenzoyloxy)butanoyloxy]-6-methylpregna-4,6-diene-3,20-dione], for which the antitumour activity result in experiment [1] is “exhibit antitumour activity”.
Turning to `CC(=O)[C@@]1(OC(=O)CCCOC(=O)CCCc2ccc(N(CCCl)CCCl)cc2)CC[C@H]2[C@@H]3C=C(Cl)C4=CC(=O)[C@@H]5C[C@@H]5[C@]4(C)[C@H]3CC[C@@]21C` [3:24, 6-chloro-17α-[4-(4-(4-(N,N-bis(2-chloroethyl)amino)phenyl)butanoyloxy)butanoyloxy]-1α,2α-methylenepregna-4,6-diene-3,20-dione], the antitumour activity entry in experiment [1] is “exhibit antitumour activity”.
Turning to `CC(=O)[C@@]1(OC(=O)COC(=O)c2ccc(Cl)c(N(CCCl)CCCl)c2)CC[C@H]2[C@@H]3C[C@H](F)C4=CC(=O)CC[C@]4(C)[C@H]3CC[C@@]21C` [3:25, 17α-[4-chloro-3-(N,N-bis(2-chloroethyl)amino)benzoyloxyacetoxy]-6α-fluoropregn-4-ene-3,20-dione], the antitumour activity result in experiment [1] is reported as “exhibit antitumour activity”.
In the case of `CC(=O)[C@@]1(OC(=O)COC(=O)CCOc2ccc(N(CCCl)CCCl)cc2)CC[C@H]2[C@@H]3CCC4=CC(=O)CC[C@]4(C)[C@H]3CC[C@@]21C` [3:26, 17α-[3-(4-(N,N-bis(2-chloroethyl)amino)phenoxy)propionyloxyacetoxy]pregn-4-ene-3,20-dione], in experiment [1], the antitumour activity entry was “exhibit antitumour activity”.
Same read-out and setting: under `CC(=O)[C@@]1(OC(=O)CNC(=O)c2ccc(C)c(N(CC(C)Cl)CC(C)Cl)c2)CC[C@H]2[C@@H]3C[C@H](C)C4=CC(=O)CC[C@]4(C)[C@H]3CC[C@@]21C` (stereo partly drawn) [4:2, 17α-/3-(N,N-bis(2-chloropropyl)amino)-4-methylbenzoylaminoacetoxy/-6α-methylpregn-4-ene-3,20-dione] stands “exhibit antitumour activity”; under `C=C1C[C@H]2[C@@H]3C=C(Cl)C4=CC(=O)CC[C@]4(C)[C@H]3CC[C@]2(C)[C@@]1(OC(=O)COC(=O)Nc1ccc(N(CCCl)CCCl)cc1OC)C(C)=O` [5:2, 6-chloro-17α-/4-(N,N-bis(2-chloroethyl)amino)-2-methoxyphenylcarbamoyloxyacetoxy/-16-methylenepregna-4,6-diene-3,20-dione], “exhibit antitumour activity”.
Still for that read-out and setting: under `CC(=O)[C@@]1(OC(=O)COC(=O)Oc2ccc(N(CCCl)CCCl)cc2)[C@H](C)C[C@H]2[C@@H]3C=C(Cl)C4=CC(=O)CC[C@]4(C)[C@H]3CC[C@@]21C` [5:3, 6-chloro-17α-/4-(N,N-bis(2-chloroethyl)amino)phenoxycarbonyloxyacetoxy/-16α-methylpregna-4,6-diene-3,20-dione] stands “exhibit antitumour activity”.
As to `CC(=O)[C@@]1(OC(=O)COC(=O)Oc2ccc(N(CCCl)CCCl)cc2)CC[C@H]2[C@@H]3CCC4=CC(=O)CC[C@]4(C)[C@H]3CC[C@@]21C` [5:4, 17α-[4-(N,N-bis(2-chloroethyl)amino)phenoxycarbonyloxyacetoxy]pregn-4-ene-3,20-dione], the antitumour activity entry in experiment [1] and in experiment [2] was “exhibit antitumour activity” throughout.
Regarding `CC(=O)[C@@]1(OC(=O)CCCNC(=O)C(C)(C)c2ccc(N(CCCl)CCCl)cc2)CC[C@H]2[C@@H]3CCC4=CC(=O)CC[C@@H]4[C@H]3CC[C@@]21C` [6:2, 17α-/4-(2-(4-(N,N-bis(2-chloroethyl)amino)phenyl)-2-methylpropanoylamino)butyanoyloxy/-19-norpregn-4-ene-3,20-dione], in experiment [1], the antitumour activity result is given as “exhibit antitumour activity”.
For `CC(=O)[C@@]1(OC(=O)CCCCNC(=O)c2ccc(C)c(N(CCBr)CCBr)c2)CC[C@H]2[C@@H]3C[C@H](F)C4=CC(=O)CC[C@]4(C)[C@H]3CC[C@@]21C` [6:3, 17α-/5-(3-(N,N-bis(2-bromoethyl)amino)-4-methylbenzoylamino)pentanoyloxy/-6α-fluoropregn-4-ene-3,20-dione], in experiment [1], the antitumour activity entry is listed as “exhibit antitumour activity”.
Take `CC(=O)[C@@]1(OC(=O)CCCNC(=O)c2ccc(C)c(N(CCCl)CCCl)c2)CC[C@H]2[C@@H]3CCC4=CC(=O)CC[C@]4(C)[C@H]3CC[C@@]21C` [6:4]: the antitumour activity result in experiment [1] and in experiment [2] was “exhibit antitumour activity” in each case.
